Test results: patent US6087355A, “Cephalosporin antibiotics” (Microcide Pharmaceuticals, Inc., priority 1996, dated 2000)
Structures can show the parent of a compound that is named as a salt.

Experiments:
Assay in all cases: In vitro MIC, agar dilution
Assay type in all cases: cell-based
[1] = test system: E. coli ATCC 25992; conditions: Escherichia coli, ATCC25992, read-out: minimum inhibitory concentration (MIC)
Protocol: (§1) The compounds of the invention were evaluated against several β-lactamresistant (for example methicillin-resistant, vancomycin resistant, and/or ampicillin-resistant) bacteria strains by determining the minimum inhibitory concentration (MIC, μg/ml) of each compound with respect to each strain. The MIC, the lowest concentration of antibiotic which inhibits growth of the test organism, was determined by the agar dilution method.
(§2) To determine the MIC for bacterial isolates, the test compound was incorporated in a series of two-fold dilutions into liquified Mueller-Hinton agar. Upon solidification, a number of different bacterial strains were spot inoculated with a replicating device onto the agar surface.
(§3) Aliquots of antimicrobial agents were prepared in phosphate buffered saline (PBS) at pH 7.2. Tween 20 or DMSO was used as a solubilizing vehicle as needed. Standard methods of vortexing, sonicating and gentle heat were used to facilitate solubilizing the test agent. […] A 1.28 mg/mL stock solution was used with a subsequent highest working concentration of 128 μg/mL. Serial two-fold dilutions were done through ≤0.25 μg/mL. Each drug level was tested in duplicate. Two-fold drug dilutions were done in sterile 50 mL tubes with a final drug volume of 5 mL. Upon the addition of 45 mL of molten agar, a 10-fold dilution resulted. Two, 25 mL. plates were then poured into 15×150 mm square Petri plates with grids and allowed to harden.
(§4) A control plate with a reference drug, either cefotaxime, vancomycin or imipenem, was used as the positive growth control. Stock concentrations of reference antibiotics were prepared and frozen at -80° C. […] All test plates were used within 24 hours of preparation.
(§5) Satisfactory results were obtained where the inoculum contained about 10^4 colony forming units (cfu)±0.5 logs. Starting with pure cultures of the test isolates on agar plates, a few isolated colonies were transferred to a tube of nutrient broth and allowed to grow 4-6 hours at 35-36° C. to reach log-phase growth. Dropwise addition of the broth culture to PBS was done to match a 0.5 McFarland turbidity standard equal to 10^8 cfu/mL. This was further diluted ten-fold in PBS to reach a working inoculum concentration of 10^7 cfu/mL. When 1 μL of the working inoculum was applied to the agar surface a concentration of about 10^4 cfu per spot was obtained.
(§6) Disposable sterile 1 μL loops were used to inoculate test plates, with each isolate in a designated grid on the agar plate. An alternate method of inoculation involved the use of a replica plater, a device with 48 steel pins allowing the simultaneous inoculation of multiple isolates. After the spots had dried, the plates were incubated at 35-36° C. for 16-20 hours. Endpoints were assessed as the minimum inhibitory concentration (MIC) of antimicrobial agent.

[2] = test system: E. faecalis ATCC 29212; conditions: Enterococcus faecalis, ATCC29212, read-out: minimum inhibitory concentration (MIC)
Protocol: as §1, §2, §3, §4, §5, §6

[3] = test system: E. faecalis VanB(Van^R); conditions: Enterococcus faecalis, read-out: minimum inhibitory concentration (MIC)
Protocol: as §1, §2, §3, §4, §5, §6

[4] = test system: E. faecium A491(Amp^R); conditions: Enterococcus faecium, read-out: minimum inhibitory concentration (MIC)
Protocol: as §1, §2, §3, §4, §5, §6

[5] = test system: E. faecium ATCC 35667; conditions: Enterococcus faecium, ATCC35667, read-out: minimum inhibitory concentration (MIC)
Protocol: as §1, §2, §3, §4, §5, §6

[6] = test system: E. faecium VanA(Van^R); conditions: Enterococcus faecium, read-out: minimum inhibitory concentration (MIC)
Protocol: as §1, §2, §3, §4, §5, §6

[7] = test system: P. aeruginosa ATCC 27853; conditions: Pseudomonas aeruginosa, ATCC27853, read-out: minimum inhibitory concentration (MIC)
Protocol: as §1, §2, §3, §4, §5, §6

[8] = test system: S. aureus 76(Meth^R)(lac^+); conditions: Staphylococcus aureus, read-out: minimum inhibitory concentration (MIC)
Protocol: as §1, §2, §3, §4, §5, §6

[9] = test system: S. aureus ATCC 13709(Meth^S); conditions: Staphylococcus aureus, ATCC13709, S. aureus ATCC 13709(Meth^S); read-out: minimum inhibitory concentration (MIC)
Protocol: as §1, §2, §3, §4, §5, §6

[10] = test system: S. aureus ATCC 29213; conditions: Staphylococcus aureus, ATCC29213, read-out: minimum inhibitory concentration (MIC)
Protocol: as §1, §2, §3, §4, §5, §6

[11] = test system: S. aureus ATCC 33593(Meth^R); conditions: Staphylococcus aureus, ATCC33593, read-out: minimum inhibitory concentration (MIC)
Protocol: as §1, §2, §3, §4, §5, §6

[12] = test system: S. aureus PC1(Meth^S)(lac^+); conditions: Staphylococcus aureus, read-out: minimum inhibitory concentration (MIC)
Protocol: as §1, §2, §3, §4, §5, §6

[13] = test system: S. aureus Spain #356(Meth^R); conditions: Staphylococcus aureus, read-out: minimum inhibitory concentration (MIC)
Protocol: as §1, §2, §3, §4, §5, §6

[14] = test system: S. haemolyticus 05(Meth^R); conditions: Staphylococcus haemolyticus, read-out: minimum inhibitory concentration (MIC)
Protocol: as §1, §2, §3, §4, §5, §6

[15] = test system: S. aureus Col(Meth^R)(lac^-); conditions: Staphylococcus aureus, read-out: minimum inhibitory concentration (MIC)
Protocol: as §1, §2, §3, §4, §5, §6
The S. aureus Col strain is a high-level PBP2a producer, whereas S. aureus Col 8A, its isogenic partner, lacks PBP2a.

## NCCSc1cnccc1SC1=C(C(=O)O)N2C(=O)[C@@H](NC(=O)/C(=N\O)c3csc(N)n3)[C@H]2SC1 [Cmpd 20, (7R)-7-[(Z)-2-(aminothiazol-4-yl)-2-(hydroxyimino)acetamido]-3-(3-aminoethylthiopyrid-4-ylthio)-3-cephem-4-carboxylate, trifluoroacetic acid salt]
[1]
  MIC: 4 µg/mL
[2]
  MIC: 1 µg/mL
[3]
  MIC: 0.5 µg/mL
[4]
  MIC: > 32 µg/mL
[5]
  MIC: 1 µg/mL
[6]
  MIC: 2 µg/mL
[7]
  MIC: > 32 µg/mL
[8]
  MIC: 4 µg/mL
[9]
  MIC: 0.5 µg/mL
[10]
  MIC: 0.5 µg/mL
[11]
  MIC: 2 µg/mL
[12]
  MIC: 0.5 µg/mL
[13]
  MIC: 4 µg/mL
[14]
  MIC: 4 µg/mL
[15]
  MIC: 2 µg/mL

## NCCSCc1cnccc1SC1=C(C(=O)O)N2C(=O)[C@@H](NC(=O)/C(=N\OCCF)c3csc(N)n3)[C@H]2SC1 [Cmpd 23, (7R)-7-[(Z)-2-(aminothiazol-4-yl)-2-(2-fluoroethoxyimino)acetamido]-3-(3-aminoethylthiomethylpyrid-4-ylthio)-3-cephem-4-carboxylate, trifluoroacetic acid salt]
[1]
  MIC: 2 µg/mL
[2]
  MIC: 0.5 µg/mL
[3]
  MIC: 1 µg/mL
[4]
  MIC: > 32 µg/mL
[5]
  MIC: 2 µg/mL
[6]
  MIC: 4 µg/mL
[7]
  MIC: > 32 µg/mL
[8]
  MIC: 4 µg/mL
[9]
  MIC: 0.5 µg/mL
[10]
  MIC: 1 µg/mL
[11]
  MIC: 4 µg/mL
[12]
  MIC: 0.5 µg/mL
[13]
  MIC: 4 µg/mL
[14]
  MIC: 4 µg/mL
[15]
  MIC: 2 µg/mL

## NCC(=O)NCCSCc1cnccc1SC1=C(C(=O)O)N2C(=O)[C@@H](NC(=O)/C(=N\O)c3csc(N)n3)[C@H]2SC1 [Cmpd 24, (7R)-7-[(Z)-2-(aminothiazol-4-yl)-2-(hydroxyimino)acetamido]-3-[3-(glycyl)aminoethylthiomethylpyrid-4-ylthio]-3-cephem-4-carboxylate, trifluoroacetic acid salt]
[1]
  MIC: 8 µg/mL
[2]
  MIC: 0.25 µg/mL
[3]
  MIC: 0.5 µg/mL
[4]
  MIC: > 32 µg/mL
[5]
  MIC: 2 µg/mL
[6]
  MIC: 4 µg/mL
[7]
  MIC: > 32 µg/mL
[8]
  MIC: 8 µg/mL
[9]
  MIC: 1 µg/mL
[10]
  MIC: 1 µg/mL
[11]
  MIC: 4 µg/mL
[12]
  MIC: 1 µg/mL
[13]
  MIC: 4 µg/mL
[14]
  MIC: 8 µg/mL
[15]
  MIC: 8 µg/mL

## N=CNCCSCc1cnccc1SC1=C(C(=O)O)N2C(=O)[C@@H](NC(=O)/C(=N\O)c3nc(N)sc3Cl)[C@H]2SC1 [Cmpd 31, (7R)-7-[(Z)-2-(2-amino-5-chlorothiazol-4-yl)-2-(hydroxyimino)acetamido]-3-(3-(N-formamidinoyl)aminoethylthiomethylpyrid-4-ylthio)-3-cephem-4-carboxylate, trifluoroacetic acid salt]
[1]
  MIC: 8 µg/mL
[2]
  MIC: 0.5 µg/mL
[3]
  MIC: 0.25 µg/mL
[4]
  MIC: 8 µg/mL
[5]
  MIC: 0.5 µg/mL
[6]
  MIC: 1 µg/mL
[7]
  MIC: > 32 µg/mL
[8]
  MIC: 2 µg/mL
[9]
  MIC: 0.25 µg/mL
[10]
  MIC: 0.25 µg/mL
[11]
  MIC: 2 µg/mL
[12]
  MIC: 0.25 µg/mL
[13]
  MIC: 2 µg/mL
[14]
  MIC: 4 µg/mL
[15]
  MIC: 2 µg/mL

## CC(N)CSCc1cnccc1SC1=C(C(=O)O)N2C(=O)[C@@H](NC(=O)/C(=N\O)c3nc(N)sc3Cl)[C@H]2SC1 (stereo partly drawn) [Cmpd 36, (7R)-7-[(Z)-2-(2-amino-5-chlorothiazol-4-yl)-2-(hydroxyimino)acetamido]-3-(3-(2-aminoprop-1-ylthiomethyl)pyrid-4-ylthio)-3-cephem-4-carboxylate, trifluoroacetic acid salt]
[1]
  MIC: 16 µg/mL
[2]
  MIC: 0.25 µg/mL
[3]
  MIC: 0.13 µg/mL
[4]
  MIC: 8 µg/mL
[5]
  MIC: 0.5 µg/mL
[6]
  MIC: 1 µg/mL
[7]
  MIC: > 32 µg/mL
[8]
  MIC: 2 µg/mL
[9]
  MIC: 0.25 µg/mL
[10]
  MIC: 0.5 µg/mL
[11]
  MIC: 1 µg/mL
[12]
  MIC: 0.25 µg/mL
[13]
  MIC: 1 µg/mL
[14]
  MIC: 2 µg/mL
[15]
  MIC: 1 µg/mL

## CNCCSCc1cnccc1SC1=C(C(=O)O)N2C(=O)[C@@H](NC(=O)/C(=N\O)c3nc(N)sc3Cl)[C@H]2SC1 [Cmpd 41, (7R)-7-[(Z)-2-(2-amino-5-chlorothiazol-4-yl)-2-(hydroxyimino)acetamido]-3-(3-(2-N-methylaminoethylthiomethyl)pyrid-4-ylthio)-3-cephem-4-carboxylate, trifluoroacetic acid salt]
[1]
  MIC: 4 µg/mL
[2]
  MIC: ≤ 0.06 µg/mL
[3]
  MIC: ≤ 0.06 µg/mL
[4]
  MIC: 8 µg/mL
[5]
  MIC: 0.25 µg/mL
[6]
  MIC: 1 µg/mL
[7]
  MIC: 32 µg/mL
[8]
  MIC: 1 µg/mL
[9]
  MIC: 0.13 µg/mL
[10]
  MIC: 0.13 µg/mL
[11]
  MIC: 1 µg/mL
[12]
  MIC: 0.25 µg/mL
[13]
  MIC: 1 µg/mL
[14]
  MIC: 1 µg/mL
[15]
  MIC: 1 µg/mL

## NCC#CCc1cnccc1SC1=C(C(=O)O)N2C(=O)[C@@H](NC(=O)/C(=N\O)c3nc(N)sc3Cl)[C@H]2SC1 [Cmpd 48, (7R)-7-[(Z)-2-(2-amino-5-chlorothiazol-4-yl)-2-(hydroxyimino)acetamido]-3-(3-(4-amino-2-butyn-1-yl)pyrid-4-ylthio)-3-cephem-4-carboxylate, trifluoroacetic acid salt]
[1]
  MIC: 4 µg/mL
[2]
  MIC: 0.25 µg/mL
[3]
  MIC: 0.5 µg/mL
[4]
  MIC: 32 µg/mL
[5]
  MIC: 1 µg/mL
[6]
  MIC: 4 µg/mL
[7]
  MIC: > 32 µg/mL
[8]
  MIC: 8 µg/mL
[9]
  MIC: 0.25 µg/mL
[10]
  MIC: 0.5 µg/mL
[11]
  MIC: 4 µg/mL
[12]
  MIC: 0.5 µg/mL
[13]
  MIC: 8 µg/mL
[14]
  MIC: 16 µg/mL
[15]
  MIC: 4 µg/mL

## CC(N)COCc1cnccc1SC1=C(C(=O)O)N2C(=O)[C@@H](NC(=O)/C(=N\O)c3nc(N)sc3Cl)[C@H]2SC1 (stereo partly drawn) [Cmpd 49, (7R)-7-[(Z)-2-(2-amino-5-chlorothiazol-4-yl)-2-(hydroxyimino)acetamido]-3-(3-(2-aminopropyloxymethyl)pyrid-4-ylthio)-3-cephem-4-carboxylate, trifluoroacetic acid salt]
[1]
  MIC: 8 µg/mL
[2]
  MIC: 0.13 µg/mL
[3]
  MIC: 0.13 µg/mL
[4]
  MIC: 16 µg/mL
[5]
  MIC: 1 µg/mL
[6]
  MIC: 2 µg/mL
[7]
  MIC: > 32 µg/mL
[8]
  MIC: 2 µg/mL
[9]
  MIC: 0.25 µg/mL
[10]
  MIC: 0.25 µg/mL
[11]
  MIC: 2 µg/mL
[12]
  MIC: 0.5 µg/mL
[13]
  MIC: 2 µg/mL
[14]
  MIC: 4 µg/mL
[15]
  MIC: 2 µg/mL

## NCCCSc1cnccc1SC1=C(C(=O)O)N2C(=O)[C@@H](NC(=O)/C(=N\O)c3nc(N)sc3Cl)[C@H]2SC1 [Cmpd 51, (7R)-7-[(Z)-2-(2-amino-5-chlorothiazol-4-yl)-2-(hydroxyimino)acetamido]-3-(3-(3-aminopropylthio)pyrid-4-ylthio)-3-cephem-4-carboxylate, trifluoroacetic acid salt]
[1]
  MIC: 8 µg/mL
[2]
  MIC: 0.13 µg/mL
[3]
  MIC: 0.25 µg/mL
[4]
  MIC: 8 µg/mL
[5]
  MIC: 0.13 µg/mL
[6]
  MIC: 1 µg/mL
[7]
  MIC: > 32 µg/mL
[8]
  MIC: 4 µg/mL
[9]
  MIC: 0.5 µg/mL
[10]
  MIC: 0.25 µg/mL
[11]
  MIC: 2 µg/mL
[12]
  MIC: 0.5 µg/mL
[13]
  MIC: 2 µg/mL
[14]
  MIC: 2 µg/mL
[15]
  MIC: 2 µg/mL
